Measurements taken from article PMC12156185, “Synthesis of Cyclic Hexapeptides via the Hydrazide Method and Evaluation of Their Antibacterial Activities” (Molecules, 2025).

Tested on: red blood cells
Format: cell-based, mouse
Procedure: Based on the antimicrobial activity screening, a hemolysis assay was conducted to assess the toxicity of Cy-f1, Cy-f2, and Cy-f4 (Figure 5). For Cy-f1, the hemolysis percentage remained consistently low across all tested concentrations. At 8 μM, Cy-f1 induced approximately 0.12% hemolysis. […] For Cy-f2, the hemolysis percentage also remained consistently low across all tested concentrations. At 8 μM, Cy-f2 induced approximately 0.3% hemolysis, and Cy-f2 stayed stable at 0.3% at 16 μM and 32 μM. […] At 8 μM, it induced approximately 0.7% hemolysis, […]. However, hemolysis increased slightly with higher concentrations, reaching approximately […] and 1.1% at 16 μM and 32 μM, respectively. […] In this experiment Triton X-100 was used as a positive control with a hemolysis rate of 100%.
For the hemolytic assay, 2 mL of fresh blood was collected from a healthy mouse into an EDTA-coated tube. All procedures regarding the care and use of laboratory animals adhered to the guidelines established by the Guangxi University Ethics Committee (Approval No.: GXU-2024-063). According to the method of Tan with necessary adjustments. The blood was centrifuged and upper supernatant plasma was removed. […] After centrifugation, 200 µL of supernatant were transferred into a 96-well plate and the absorbance was recorded at 576 nm using a microplate reader. […]

Triton X-100
Hemolysis rate (positive control): 100%
